Data as given in US20130253060A1, “Intramural Research Program of the National Institutes of Health, National Institute of Environmental Health Sciences (NIEHS)” (priority 2011, published 2013).
“Also recorded” adds a separate entry of the source. Read-outs that look alike come from different tables or passages of the source.

How the values were obtained:
[1] = tested on: Male Swiss Webster mice given a lethal dose of acetaminophen (APAP); assay: Survival of mice given a lethal dose of APAP, with or without BPPA treatment; type: in vivo; details: for mortality: APAP alone
Protocol: Male Swiss Webster mice weighing between 25-30 g were obtained from Harlan Laboratories (Indianapolis, Ind.). Mice had unlimited access to rodent chow (Harlan Teklad Rat Chow No. 7001, Madison, Wis.) and water. The mice were housed over sawdust bedding free of any known chemical contaminants (Sani-chips; Harlan Teklad, Madison, Wis.) in air conditioned quarters (21±1° C.) with a 12 h photoperiod. All animal husbandry and handling conditions were as per the NIH Guide for Care and Use of Laboratory Animals. Research protocols were approved by the ULM Institutional Animal Care and Use Committee (IACUC).
(§1) Mice were given by intraperitoneal injection (i.p.) a lethal dose of APAP (600 mg/kg in 0.45 N NaCl, pH 8.2) or the vehicle alone. Treated mice were given a single injection of 20 mg/kg, i.p., BPPA, a sPLA2 inhibitor, after a set time interval (2, 4, and 8 hours after the dose of APAP). BPPA was purchased from a commercial source (Catalog No. 53319, Sigma Aldrich, St. Louis, Mo.). All the mice were observed six times on the first day and twice daily thereafter for 14 days for any mortality. […] Plasma was obtained by centrifugation of blood samples (1000 g for 20 min) for assessment of biochemical parameters of liver injury. The remaining plasma was quick-frozen in liquid nitrogen and stored at −80° C. until further analysis.

[2] = tested on: plasma alanine aminotransferase (ALT); assay: Plasma alanine aminotransferase (ALT) as biomarker of liver injury; type: in vivo, mice
Protocol: as §1
Plasma was separated by centrifugation of the heparinized blood. Plasma alanine aminotransferase (ALT) was measured as a biomarker of liver injury using a kit from Thermo DMA (Waltham, Mass.). The results were ascertained by light microscopic examination of liver sections stained with hematoxylin and eosin (H&E).

[3] = tested on: secretory phospholipase A2 (sPLA2); assay: sPLA2 activity in plasma; type: in vivo, mice
Protocol: as §1
sPLA2 activity in the plasma was measured using sPLA2 activity kit (Cayman Chemicals, Ann Arbor, Mich.) as per the manufacturer's instructions. sPLA2 activity in plasma was expressed as sPLA2 units/ml. One unit of sPLA2 hydrolyzes one μmole of substrate (diheptanoyl Thio-phosphatidylcholine) per min at 25° C. and is expressed as μmoles substrate hydrolyzed/min/ml.

[4] = mice; cited from earlier work
[5] = humans; cited from earlier work
[6] = tested on: rats receiving chlordecone (CD)+CCl4; assay: Survival after chlordecone + CCl4 combination with BPPA treatment; type: in vivo; details: BPPA 20 mg/kg 1 hour after CCl4 injection; rats on chlordecone; data not shown
Protocol: A combination of two chemicals, which are known to be nontoxic individually at very low levels, is known to be highly toxic when combined in mammals. One of these is a chlorinated pesticide known as KEPONE™, which is commonly known as chlordecone. The other is the organic solvent, carbon tetrachloride (CCl4). Either chemical will be toxic if given at a sufficient dose. For example, chlordecone, administered to older rats at 120 mg/kg causes central nervous system (CNS) toxicity such as tremors, convulsions and death. CCl4 injected or given orally at 4 ml/kg causes severe liver necrosis, liver failure and death. […] Likewise, exposing rats to a single dose of 100 μl/kg CCL4, i.p. led to the classic centrilobular injury by 3 hours, which escalated to about 4 fold injury in the liver by 12 hours. However, by 24 hours, the liver injury was repaired and no liver injury was observed. In contrast, if the same dose of CCl4 was given to rats maintained on dietary 10 ppm chlordecone for 15 days, on day 16, all rats died within 3 days after injecting CCl4, which is about a 67-fold amplification of the toxicity for CCl4 (Mehendale, 1994).
Using this combination of chlordecone and CCL4, BPPA (20 mg/kg) was injected in the rats 1 hour after the injection of CCl4, and 90% of the rats receiving the chlordecone (CD)+CCl4 survived (data not shown).

[7] = tested on: mice lethally poisoned with thioacetamide; assay: Rescue of mice lethally poisoned with thioacetamide by BPPA; type: in vivo; details: data not shown
Description: In addition, I have shown that sPLA2 mediates the liver injury initiated by thioacetamide, another hepatotoxicant, by showing mice lethally poisoned with thioacetamide were rescued by inhibiting sPLA2 with BPPA (data not shown).

[8] = tested on: rats maintained on dietary 10 ppm chlordecone; details: CCl4 100 μl/kg i.p. on day 16 to rats on dietary 10 ppm chlordecone for 15 days; cited from earlier work
[9] = APAP alone 600 mg/kg i.p., measured on Day 2, vs control and vehicle
[10] = BPPA 20 mg/kg 2 hours after APAP 600 mg/kg, surviving mice, over 14 days
[11] = BPPA 20 mg/kg 4 hours after APAP 600 mg/kg

Structure (SMILES): CC(=O)Nc1ccc(O)cc1 [APAP, Acetaminophen]
- mortality ([1]; single dose 600 mg/kg i.p., no further treatment): 80%
- mortality ([1]; at 12 hours after injection): 50%
- mortality ([1]; at 24 hours after injection): 80%
- plasma ALT enzymatic activity [2, 9]: increased
- plasma sPLA2 enzymatic activity [3, 9]: increased
- half-life [4]: 1 h
- half-life [5]: 2.5 h

Structure (SMILES): O=C(O)CC[C@@H](Cc1ccc(OCc2ccccc2)cc1)NC(=O)CCCCCCc1ccccc1 [BPPA, 5-(4-Benzyloxyphenyl)-4S-(7-phenylheptanoylamino) pentanoic acid]
- survival ([1]; BPPA 20 mg/kg i.p. 4 hours after APAP 600 mg/kg i.p., observed 14 days): 70%
- survival ([1]; BPPA 20 mg/kg i.p. 8 hours after APAP 600 mg/kg i.p., observed 14 days): 60%
- cumulative mortality ([1]; at 14 days, BPPA 20 mg/kg 2 hours after acetaminophen): 10%
- survival ([1]; inhibitor administered 2 to 8 hours after APAP 600 mg/kg): 60%-80
- plasma ALT activity [2, 10]: down to the normal values; also recorded: decreased
- plasma ALT level [2, 11]: decreased to about normal levels
- plasma sPLA2 activity [3, 10]: down to the normal values; also recorded: decreased
- plasma sPLA2 level [3, 11]: decreased to about normal levels
- survival [6]: 90%
- rescue from lethal thioacetamide poisoning [7]: rescued
- mortality ([7]; mice lethally dosed with thioacetamide, treated with BPPA): less mortality

Structure (SMILES): ClC(Cl)(Cl)Cl [CCl4, carbon tetrachloride]
- amplification of the toxicity [8]: ~67 fold
